Assays:
[1] = system: CD4^+ T cells expressing DO11.00 TCR; assay: Adoptive transfer of CFSE-stained DO11.10 TCR CD4+ T cells, ovalbumin-induced division (flow cytometry); assay type: in vivo, mouse; conditions: BALB/C mice; oral once a day for four days; inotodiol 20 mg/kg, ethanol extract 320 mg/kg, imatinib 10 mg/kg; five days after ovalbumin injection; FIG. 4(B)
Experimental: (§1) In order to examine the effect of an inotodiol compound or a chaga mushroom extract containing an inotodiol compound on CD4^+ T cell activity regulation, analysis of expression level of cytokine produced by Th2 CD4^+ T cell and adoptive transfer experiments using CD4^+ TCR transgenic T cells that express DO11.00 TCR, i.e., the ovalbumin-derived peptide specific T cell receptor (TCR), were performed.
Experiments to measure a degree of ovalbumin-derived peptide specific T cell immune response from an animal experiment were performed as follows. Cells were isolated from the lymph nodes of transgenic mice expressing DO11.10TCR. The isolated cells were fluorescence-stained with carboxyfluorescein succinimidyl ester (CFSE), and 2×10^6 cells were injected intravenously into BALB/C mice. Cells were injected intraperitoneally with ovalbumin (50 μg) and alum to induce division of CD4^+ T cells expressing DOII.00 TCR. Oral administration of 20 mg/kg of the inotodiol compound, 320 mg/kg of the chaga mushroom ethanol extract, 10 mg/kg of dexamethasone, 10 mg/kg of imatinib, or 20 mg/kg of the cholesterol was performed once a day for four days starting from one day after ovalbumin injection. After five days of ovalbumin injection, the cells were isolated from BALB/C lymph nodes, stained with anti-CD4 antibody and anti-DO11.10 antibody, and measured CFSF fluorescence intensity of the CD4^+ T cell expressing DOII.00 TCR using flow cytometry to determine the cell division degree. Then, the number of cells was measured. Here, the CFSF fluorescence intensity decreased as the cell division increases.

[2] = system: mast cell degranulation (MCPT-1); assay: Passive systemic anaphylaxis: MCPT-1 in blood; assay type: in vivo, mouse; conditions: passive systemic anaphylaxis (anti-DNP-IgE, DNP-BSA i.v.); oral once a day for 3 days; inotodiol 20, ethanol extract 320, cholesterol 20, dexamethasone 10, imatinib 20 mg/kg; FIG. 5(B)
Experimental: (§2) On the third day after oral administration, 3 μg of anti-dinitrophenol (DNP)-IgE was intravenously injected, and after 24 hours, mast cell degranulation was induced by intravenous injection of 80 μg of DNP-conjugated bovine serum albumin (BSA). The rectal temperature of mice induced mast cell degranulation was measured, and the amount of MCPT-1 in the blood was analyzed.

[3] = system: food allergy-induced mouse model; assay: Anaphylaxis symptom score in ovalbumin food allergy mouse model; assay type: in vivo; conditions: ovalbumin food allergy BALB/C mice; oral daily; inotodiol, dexamethasone, cholesterol 20 mg/kg; extract and fractions 320 mg/kg; score 0-4 (Table 3); FIG. 1(B)
Experimental: (§3) To prepare allergy mouse models, 5-week-old male BALB/C mice were used. Food allergy models were prepared using ovalbumin of chicken as an allergy-inducing material (allergen).
(§4) For immunization of the mice, 20 μg of ovalbumin was mixed with 2 mg of alum, and the mixture was intraperitoneally injected to the mice two times every two weeks. Food allergy induction was induced by performing the second immunization injection and two weeks thereafter, 50 mg of ovalbumin was orally administered thereto five times every three days to cause an allergic response. […] Here, as a positive control, a mice group was used to which dexamethasone was administered every day. 50 mg of ovalbumin alone or the chaga mushroom extract, the fraction, or the inotodiol compound was lastly administered thereto, followed by observation on symptoms caused by allergy one hour thereafter.

[4] = system: food allergy-induced mouse model; assay: Stool observation (diarrhea score) in ovalbumin food allergy mouse model; assay type: in vivo; conditions: ovalbumin food allergy BALB/C mice; oral daily; inotodiol, dexamethasone, cholesterol 20 mg/kg; extract and fractions 320 mg/kg; score 0-4 (Table 4); FIG. 1(C)
Experimental: as §3, §4

[5] = system: eosinophils in small intestine; assay: Eosinophil infiltration in small intestine (H&E staining), food allergy mouse model; assay type: in vivo; conditions: ovalbumin food allergy BALB/C mice; H&E stained small intestine sections; FIG. 2(A)
Experimental: as §3, §4
The mice of each experimental group in Experimental Example 1 were anesthetized and cut the abdomen. Then, the small intestine was removed, fixed with formalin, treated with paraffin, permeated with paraffin, and microsectioned using microtome, thereby obtaining tissue sections. The obtained small intestine sections were stained with hematoxylin and eosin (H&E) to observe eosinophil cells.

[6] = system: mast cells in small intestine; assay: Number of mast cells in small intestine (toluidine staining), food allergy mouse model; assay type: in vivo; conditions: ovalbumin food allergy BALB/C mice; toluidine stained small intestine sections; FIG. 2(B)
Experimental: as §3, §4

[7] = system: egg white protein-specific IgE; assay: Serum IgE concentration by ELISA, food allergy mouse model; assay type: in vivo; conditions: ovalbumin food allergy BALB/C mice, serum one day after last administration, FIG. 3(A)
Experimental: as §4

[8] = system: mast cell protease-1 (MCPT-1); assay: Serum MCPT-1 concentration by ELISA, food allergy mouse model; assay type: in vivo; conditions: ovalbumin food allergy BALB/C mice, serum one day after last administration, FIG. 3(B)
Experimental: as §4

[9] = system: cytokine produced by Th2 CD4^+ T cells (IL-5, IL-13, IFN-γ); assay: Cytokine production by mesenteric lymph node cells of treated food allergy mice (ELISA); assay type: in vivo, mouse; conditions: mLN cells of treated food allergy mice cultured three days with 100 μg/mL ovalbumin (OVA); FIG. 4(A)
Experimental: as §1
For the expression of cytokine, a sample was treated in the same manner as in Experimental Example 1, and the cells were isolated from the mesenteric lymph node (mLN) of mice of each group after one day. At this time, a group treated with 10 mg/kg of dexamethasone, a group treated with 20 mg/kg of imatinib (Gleevec), which is used as a mast cell […] therapeutic agent, and a group treated with 20 mg/kg of cholesterol that is similar in structure to the inotodiol compound were added. The isolated cells were dispensed into wells of a 96-well plate at a rate of 1×10^6 cells/well. RPMI complete medium (containing 10% fetal bovine serum (FBS), penicillin, streptomycin, and glutamine) containing ovalbumin or RPMI complete medium containing 100 μg/mL of ovalbumin was inoculated and culture for three days under a condition of 37° C. and 5% CO2. […]

mast cell degranulation = assay: Passive systemic anaphylaxis: rectal temperature; assay type: in vivo, mouse; conditions: passive systemic anaphylaxis (anti-DNP-IgE, DNP-BSA i.v.); oral once a day for 3 days; inotodiol 20 mg/kg, ethanol extract 320 mg/kg; FIG. 5(A)
Experimental: as §2

Row | Compound | CFSE fluorescence intensity of CD4+ T cell expressing DO11.00 TCR (cell division degree) [1] | number of CD4+ T cells expressing DO11.00 TCR [1] | concentration of MCPT-1 in the blood after induced mast cell degranulation [2] | anaphylaxis score [3] | diarrhea symptom score (stool symptom score) [4] | infiltration of eosinophils in the small intestine (number of stained eosinophil cells) [5] | number of mast cells in the small intestine [6] | concentration of egg white protein-specific IgE in serum [7] | concentration of MCPT-1 in serum [8] | amount of IL-5, IL-13, and IFN-γ (cytokine expression by Th2 CD4+ T cells) [9] | rectal temperature after induced mast cell degranulation (mast cell degranulation)
1 | Cc1ccc(NC(=O)c2ccc(CN3CCN(C)CC3)cc2)cc1Nc1nccc(-c2cccnc2)n1 [Imat., imatinib] | no difference in the CFSE fluorescence intensity and the number of cells, as compared with the unimmune group | no difference in the CFSE fluorescence intensity and the number of cells, as compared with the unimmune group | level of increase in concentration of MCPT-1 was significantly decreased | – | – | – | – | – | – | – | –
2 | CC(C)=CC[C@@H](O)[C@@H](C)[C@H]1CC[C@@]2(C)C3=C(CC[C@]12C)[C@@]1(C)CC[C@H](O)C(C)(C)[C@@H]1CC3 [Inotodiol, inotodiol] | – | significantly increased number of CD4^+T cells | level of increase in concentration of MCPT-1 was significantly decreased | lower anaphylaxis score than the food allergy-induced group | lower than that of the food allergy-induced group | decreased infiltration of eosinophils | decreased number of mast cells | no substantial change in the concentration of IgE | decreased significantly | not substantially different from the expression amount of IL-5, IL-13, and IFN-γ | did not decrease the rectal temperature
3 | CC(C)CCC[C@@H](C)[C@H]1CC[C@H]2[C@@H]3CC=C4C[C@@H](O)CC[C@]4(C)[C@H]3CC[C@]12C [cholesterol, reference compound] | – | – | MCPT-1 did not decrease | – | – | little decrease in the number of eosinophils and mast cells | little decrease in the number of eosinophils and mast cells | – | – | – | –

Reference: US11896601B2, “Composition for prevention or treatment of allergic disease including inotodiol compound as active ingredient” (CARBOEXPERT INC., priority 2018, dated 2024)
